Results as given in patent publication US11583507B2, “Direct AMPK activator compounds” (SOCIETE DES PRODUITS NESTLE S.A., priority 2018, dated 2023).

Tests used:
AMPKα2β1γ1 (211) = biological target: T1, AMPKα2β1γ1 (211) (Homo sapiens, UniProt P54619+P54646+Q9Y478); assay: AMPK in vitro activity assay (HTRF-KinEASE), phosphorylated bacterially-expressed complex; type: biochemical; conditions: fold activation vs complex without compound; 30 mins incubation
T1 construct: His; made in house; host or cells: bacteria
T1 sequence (P54646 whole entry): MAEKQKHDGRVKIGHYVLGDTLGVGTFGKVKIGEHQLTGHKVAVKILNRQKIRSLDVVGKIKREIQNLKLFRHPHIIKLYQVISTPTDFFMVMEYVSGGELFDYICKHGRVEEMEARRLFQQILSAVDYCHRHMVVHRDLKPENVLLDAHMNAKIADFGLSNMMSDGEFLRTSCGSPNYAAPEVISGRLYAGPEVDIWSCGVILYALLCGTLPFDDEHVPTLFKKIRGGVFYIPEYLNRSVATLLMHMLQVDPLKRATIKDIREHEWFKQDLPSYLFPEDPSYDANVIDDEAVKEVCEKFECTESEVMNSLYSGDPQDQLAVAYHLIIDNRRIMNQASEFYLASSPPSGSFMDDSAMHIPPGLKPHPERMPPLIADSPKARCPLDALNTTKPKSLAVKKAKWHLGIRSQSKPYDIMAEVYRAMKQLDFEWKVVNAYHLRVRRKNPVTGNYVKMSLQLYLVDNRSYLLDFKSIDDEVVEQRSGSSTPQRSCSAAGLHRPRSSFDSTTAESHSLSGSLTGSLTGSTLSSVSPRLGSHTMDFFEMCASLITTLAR
T1 sequence (Q9Y478 whole entry): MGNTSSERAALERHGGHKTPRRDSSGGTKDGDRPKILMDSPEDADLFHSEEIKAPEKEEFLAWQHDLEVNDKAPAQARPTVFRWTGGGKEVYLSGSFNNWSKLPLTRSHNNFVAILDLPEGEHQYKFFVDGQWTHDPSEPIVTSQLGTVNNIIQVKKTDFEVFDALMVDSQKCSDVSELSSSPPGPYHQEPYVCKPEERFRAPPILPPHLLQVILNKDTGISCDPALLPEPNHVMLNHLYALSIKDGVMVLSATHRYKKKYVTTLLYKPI
T1 sequence (P54619 whole entry): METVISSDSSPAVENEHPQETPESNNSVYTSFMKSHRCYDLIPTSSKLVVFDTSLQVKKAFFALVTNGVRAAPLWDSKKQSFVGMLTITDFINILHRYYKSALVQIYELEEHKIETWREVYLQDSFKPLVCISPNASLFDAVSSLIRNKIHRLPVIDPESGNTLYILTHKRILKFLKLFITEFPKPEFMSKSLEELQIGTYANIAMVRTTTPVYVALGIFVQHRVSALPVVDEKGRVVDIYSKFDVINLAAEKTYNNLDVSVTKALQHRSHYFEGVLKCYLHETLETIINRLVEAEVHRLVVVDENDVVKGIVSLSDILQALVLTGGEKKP
Method: (§1) Lusianthridin (CAS 87530-30-1) was isolated from Thunia alba fruit. It was sourced from Analyticon (NP-012362). The plant was purchased through Analyticon's biomaterial supplier in 2003. The country of origin is Nepal. The AMPK heterotrimers were expressed in bacteria and purified through the His-α subunit by nickel purification. AMPK complexes were purified through gel filtration and phosphorylated by incubation with CaMKKβ, and further purified with a final gel filtration purification step. Phosphorylated purified AMPK was incubated with varying concentrations of ligand for 30 mins using substrate and reagents from the HTRF-KinEASE Cisbio assay kit (STK S1 Kit). Phosphorylation of the substrate was measured by incubating with donor and acceptor antibodies for 2 h at room temperature as per the manufacturer's protocol (and Coulerie et al., (2016) PMID: 27792327) and phosphorylated peptide detected by performing HTRF. The 665 nm/620 nm ratio was determined and the results are plotted as fold activation compared to the respective AMPK complex without any compound.

[1] = tested on: AMPK substrate, acetyl-CoA carboxylase (ACC); assay: pACC HTRF assay in U2OS Flp-In T-REx cells; type: cell-based; conditions: 1 h, varying concentrations, dose-dependent
Method: U2OS Flp-In T-REx cells were seeded at 100 K in a 96-well plate and left overnight at 37 C in DMEM GlutaMAX (Thermo Fisher Scientific) supplemented with 10% (vol/vol) FBS and 100 U/ml penicillin G, and 100 μg/ml streptomycin. Cells were treated for 1 h with varying concentrations of Lusianthridin in media lacking FBS and then cells were lysed in 50 μl of Cisbio lysis buffer #1 supplemented with blocking solution as per the manufacturer's protocol (Cisbio). Cells were lysed for 30 mins at room temperature before 16 μl of lysate was incubated with 4 μl of the HTRF antibodies (1:40 dilution of the acceptor and donor (p)ACC antibodies, as per the manufacturers protocol). Lysates were incubated overnight with the antibodies before 665 nm/620 nm ratio was determined using a MolecularDevices i3 plate reader (with a HTRF cartridge add-on). For western blot analysis, SDS-sample buffer was added to the remainder of the lysate, denatured at 95 C and then subjected to western blot analysis with phospho-specific and total ACC antibodies (Cell Signalling). Bands were visualized by incubating with Li-Cor secondary antibody and scanned on a Li-Cor Odyssey machine.

AMPKα1β1γ1 (111) = biological target: T2, AMPKα1β1γ1 (111) (Homo sapiens, UniProt P54619+Q13131+Q9Y478); assay: AMPK in vitro activity assay (HTRF-KinEASE), α1-containing complex; type: biochemical; conditions: fold activation vs complex without compound
T2 construct: His; made in house; host or cells: bacteria
T2 sequence (Q13131 whole entry): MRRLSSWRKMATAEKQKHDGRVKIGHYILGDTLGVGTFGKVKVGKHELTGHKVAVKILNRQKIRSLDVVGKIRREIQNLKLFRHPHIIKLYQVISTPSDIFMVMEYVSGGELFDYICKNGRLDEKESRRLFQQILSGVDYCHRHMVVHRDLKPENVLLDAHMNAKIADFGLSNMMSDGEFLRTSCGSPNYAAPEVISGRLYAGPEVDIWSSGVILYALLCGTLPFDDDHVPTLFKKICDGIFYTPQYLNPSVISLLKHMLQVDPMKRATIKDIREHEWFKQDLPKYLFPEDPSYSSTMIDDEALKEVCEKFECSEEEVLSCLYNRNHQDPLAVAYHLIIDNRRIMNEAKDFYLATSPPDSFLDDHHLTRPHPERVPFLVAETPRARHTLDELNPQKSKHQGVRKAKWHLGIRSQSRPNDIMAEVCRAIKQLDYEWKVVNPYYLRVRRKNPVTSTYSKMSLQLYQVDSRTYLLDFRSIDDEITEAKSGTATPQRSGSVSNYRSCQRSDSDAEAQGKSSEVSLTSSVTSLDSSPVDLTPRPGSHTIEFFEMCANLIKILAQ
T2 sequence (Q9Y478 whole entry): as the sequence (Q9Y478 whole entry) above
T2 sequence (P54619 whole entry): as the sequence (P54619 whole entry) above
Method: as §1

[2] = biological target: T3, AMPK α2β1γ1 S108A mutant (211 S108A) (Homo sapiens, UniProt P54619+P54646+Q9Y478, S108A); assay: AMPK in vitro activity assay (HTRF-KinEASE), β1 S108A mutant; type: biochemical
T3 construct: His; made in house; host or cells: bacteria
T3 sequence (P54646 whole entry): as the sequence (P54646 whole entry) above
T3 sequence (Q9Y478 whole entry S108A): as the sequence (Q9Y478 whole entry) above, with S108A counted along it
T3 sequence (P54619 whole entry): as the sequence (P54619 whole entry) above
Method: as §1

[3] = tested on: differentiated C2C12 cells; assay: Glucose uptake (3H-2-deoxyglucose) into differentiated C2C12 cells; type: cell-based; conditions: Lusianthridin 100 μM for 4 h at 37 C
Method: C2C12 cells were maintained in DMEM GlutaMAX supplemented with 10% (vol/vol) FBS and 100 U/ml penicillin G, and 100 μg/ml streptomycin. C2C12 myoblasts were differentiated into myotubes by 7 days of culture in DMEM GlutaMAX supplemented with 2% (vol/vol) horse serum and antibiotics. Cells were transferred to serum-free media for 24 hours, before equilibrating with bicarbonate-free medium prior to treatment. Cells were treated with Control (DMSO 1% final concentration) or 100 μM Lusianthridin in the presence of ^3H-2-deoxyglucose (in Krebs-Hepes buffer containing sodium pyruvate). Cells were lysed and the quantity of ^3H determined in these samples using a scintillation counter.
Activation of AMPK in muscle cells has been previously shown to increase glucose uptake. […] Differentiated C2C12 cells were treated with either control or 100 μM Lusianthridin for 4 h at 37 C. Glucose uptake was determined by monitoring the uptake of ^3H-2-deoxyglucose into cells. […] This is consistent with the important role of AMPK in mediating glucose uptake in muscle.

[4] = tested on: AMPK α2β1γ1 ΔCBM mutant (211 ΔCBM); assay: AMPK in vitro activity assay (HTRF-KinEASE), ΔCBM mutant; type: biochemical; conditions: carbohydrate-binding module deleted
Method: as §1

primary hepatocytes = assay: Lipogenesis ([1-14C]-acetate incorporation into fatty acids) in primary hepatocytes; type: cell-based, mouse; conditions: 1 h at 37 C, varying concentrations
Method: Hepatocyte isolation: The liver was first perfused with 50 ml perfusion buffer (Krebs-Hepes buffer with […] EDTA), followed with 50 ml collagenase A buffer (Krebs-Hepes buffer with 5 mM CaCl2 and 0.5 mg/ml collagenase). […] Hepatocytes were left to attach (3-4 h) and cultured overnight in M199 supplemented with antibiotics and 100 nM dexamethasone. Cells were used for experiments the following morning. For primary hepatocyte isolation see Example 4. For lipogenesis measurements in primary hepatocytes, cells were seeded at 600 K cells per well in a 6-well plate overnight. Media was replaced with fresh M199 media alone for 2 hours prior to incubation with varying concentrations of Lusianthridin for 1 h at 37 C, in the presence of [1-^14C]-acetate. The incorporation of [^14C] into fatty acids was determined in the lower organic layer after separation from the aqueous phase. […] Lipogenesis is controlled by the AMPK substrate ACC, and phosphorylation and inhibition of ACC by AMPK, leads to a decrease in lipogenesis. Lipogenesis was measured in primary hepatocytes by determining the incorporation of ^14C-labelled acetate into fatty acids. Lipogenesis was monitored in the presence or absence of varying concentrations of Lusianthridin for 1 h at 37 C. […] This observation is consistent with its ability to activate AMPK in hepatocytes, which leads to the phosphorylation and inhibition of ACC.

AMPK α2β2γ1 (221) = biological target: T4, AMPK α2β2γ1 (221) (Homo sapiens, UniProt O43741+P54619+P54646); assay: AMPK in vitro activity assay (HTRF-KinEASE), β2-containing complex; type: biochemical; conditions: fold activation vs complex without compound
T4 construct: His; made in house; host or cells: bacteria
T4 sequence (P54646 whole entry): as the sequence (P54646 whole entry) above
T4 sequence (O43741 whole entry): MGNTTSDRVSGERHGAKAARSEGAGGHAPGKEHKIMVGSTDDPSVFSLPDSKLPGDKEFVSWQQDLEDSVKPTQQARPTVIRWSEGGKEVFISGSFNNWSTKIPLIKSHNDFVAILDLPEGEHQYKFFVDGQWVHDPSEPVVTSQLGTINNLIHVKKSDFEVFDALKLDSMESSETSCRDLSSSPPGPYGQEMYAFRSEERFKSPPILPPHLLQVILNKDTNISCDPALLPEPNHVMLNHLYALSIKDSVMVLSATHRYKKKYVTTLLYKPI
T4 sequence (P54619 whole entry): as the sequence (P54619 whole entry) above
Method: as §1

[5] = tested on: mouse primary hepatocytes; assay: MTT cytotoxicity assay in mouse primary hepatocytes; conditions: 1 h at 37 C, Lusianthridin up to 100 μM
Method: Mouse primary hepatocytes were treated with the indicated concentrations of Lusianthridin, Oligomycin and FCCP for 1 h at 37 C. Cell viability was determined by using an MTT assay as per the manufacturer's protocol.
For cytotoxicity experiments in primary hepatocytes, cells were seeded at 20 K cells per well in a 96-well plate overnight in M199 media. Hepatocytes were incubated with varying concentrations of Lusianthridin, Oligomycin or FCCP for 1 h at 37 C. The media was changed for media without phenol red, before performing an MTT assay as per the manufacturer's instructions (Thermo fisher, V131154).

[6] = biological target: T5, AMPK α2β1γ1 R298G (211 R298G) mutant (Homo sapiens, UniProt P54619+P54646+Q9Y478, R299G); assay: AMPK in vitro activity assay (HTRF-KinEASE), γ1 R298G mutant; type: biochemical; conditions: mutation in the γ1 AMP binding pocket
T5 construct: His; made in house; host or cells: bacteria
T5 sequence (P54646 whole entry): as the sequence (P54646 whole entry) above
T5 sequence (Q9Y478 whole entry): as the sequence (Q9Y478 whole entry) above
T5 sequence (P54619 whole entry R299G): as the sequence (P54619 whole entry) above, with R299G counted along it
Method: as §1

COc1cc(O)c2c(c1)CCc1ccc(O)cc1-2 [Compound 5, 7-Methoxy-9,10-dihydrophenanthrene-3,5-diol]
activation of bacterially-expressed AMPKα2β1γ1 complexes (AMPKα2β1γ1 (211)): activate
phosphorylation of the AMPK substrate ACC (pACC HTRF) [1]: increase

Oc1ccc2c(c1)CCc1cc(O)cc(O)c1-2 [Compound 4, 9,10-Dihydrophenanthrene-2,4,7-triol]
activation of bacterially-expressed AMPKα2β1γ1 complexes (AMPKα2β1γ1 (211)): activate
activation of bacterially-expressed AMPKα1β1γ1 complexes (AMPKα1β1γ1 (111)): activates
activation of AMPK complexes with the β1 S108A mutation [2]: did not activate
fold increase in glucose uptake relative to control [3]: ~2 fold
activation of α2β1γ1 ΔCBM mutant [4]: did not activate
rate of lipogenesis (DPM per μg of protein) (primary hepatocytes): dose-dependent decrease
activation of β2-containing AMPK complexes (α2β2γ1) (AMPK α2β2γ1 (221)): did not activate
phosphorylation of the AMPK substrate ACC (pACC HTRF) [1]: increase

COc1cc(O)c2c(c1)CCc1cc(O)c(O)cc1-2 [Compound 2, 7-Methoxy-9,10-dihydrophenanthrene-2,3,5-triol]
activation of bacterially-expressed AMPKα2β1γ1 complexes (AMPKα2β1γ1 (211)): activate
phosphorylation of the AMPK substrate ACC (pACC HTRF) [1]: increase

CC[C@H]1/C=C/C=C/C[C@@H](C)[C@H](O)[C@@](C)(O)C(=O)[C@@H](C)[C@H](O)[C@@H](C)C(=O)[C@@H](C)[C@H](O)[C@@H](C)/C=C/C(=O)O[C@@H]2[C@H](C)[C@H](CC1)O[C@]1(CC[C@H](C)[C@H](C[C@@H](C)O)O1)[C@H]2C [Oligomycin]
cell viability (MTT, percentage of viable cells) [5]: robust decrease in cell viability

N#CC(C#N)=NNc1ccc(OC(F)(F)F)cc1 [FCCP, carbonyl cyanide P-(trifluoromethoxy) phenylhydrazone]
cell viability (MTT, percentage of viable cells) [5]: robust decrease in cell viability

Nc1ncnc2c1ncn2[C@@H]1O[C@H](COP(=O)(O)O)[C@@H](O)[C@H]1O [AMP, reference compound]
activation of AMPK α2β1γ1 γ1 R298G mutant complexes [6]: impaired

Oc1ccc2c(c1)CCc1cccc(O)c1-2 [Compound 3, 9,10-Dihydrophenanthrene-2,5-diol]
activation of bacterially-expressed AMPKα2β1γ1 complexes (AMPKα2β1γ1 (211)): activate
phosphorylation of the AMPK substrate ACC (pACC HTRF) [1]: increase
